Data published in PMC11207040, “Synthesis and Biological Studies of New Temporin A Analogs Containing Unnatural Amino Acids in Position 7” (Pharmaceutics, 2024).
Converted amounts (≈) assume the structure as drawn. Where two headings read alike, the source gives them in different places. Non-standard residues stand in square brackets, D forms with d. Residues, ends and D or L forms follow the SMILES beside them. Dab = NCC[C@H](N)C(=O)O

How the values were obtained:
MCF-12F cells = assay: MTT antiproliferative assay, MCF-12F; type: cell-based, human; conditions: 72 h, non-tumorigenic cell line, read-out: Mean IC50 ± SD, MCF-12F
Protocol: The cell lines BALB 3T3 (mouse embryonic fibroblasts) and MCF-12F (human breast epithelial cells) were used as models for healthy tissue. The MCF-7 and MDA-MB-231 cell lines were used as in vitro models for luminal A- and basal B-type breast cancer, respectively. Cell lines were obtained from the American Type Cultures Collection (ATCC, Manassas, VA, USA). Cells were cultured in Dulbecco modified Eagle’s medium (DMEM) supplemented with 10% fetal bovine serum (FBS), 100 U/mL penicillin, and 0.1 mg/mL streptomycin (Sigma-Aldrich, Schnelldorf, Germany) in an incubator at 37 °C, 5% CO2 and 95% humidity. Plastic flasks 75 cm^2 (Biologix, Lenexa, KS, USA) were used to grow the cells.
The antiproliferative activity testing was performed on cell cultures using the MTT-dye reduction assay. This assay is based on the metabolism of MTT to insoluble formazan by mitochondrial reductases. The formazan concentration can be determined spectrophotometrically. The measured absorption is an indicator of cell viability. Cell lines (MCF-12F, MCF-7 and MDA-MB-231) were used in the experiments. Cells were plated at a density of 1 × 10^3 cells/100 µL in each well of 96-well microplates and allowed to adhere for 24 h before treatment with test compounds. A concentration range from 4 to 1000 μM was applied for 72 h. The formazan absorption was registered using a microplate reader at λ = 540 nm. Antiproliferative activities were expressed as IC50 values (concentrations required for 50% inhibition of cell growth).

[1] = tested on: Arthrobacter oxydans NBIMCC 9333; type: cell-based; conditions: for Inhibition effect, A. oxydans 9333: zone of peptide over zone of antibiotic x 100; for Inhibition zone, A. oxydans 9333: 20 µL per disc, 24 h
Protocol: (§1) The parent peptide Temporin A and the novel analogs were subjected to tests against model strains Escherichia coli NBIMCC 8785, Bacillus subtilis NBIMCC 3562, Arthrobacter oxydans NBIMCC 9333, Pseudomonas aeruginosa NBIMCC 3700, and Candida albicans NBIMCC 74, for the assessment of their antimicrobial activity. The strains were acquired from the National Bank for Industrial Microorganisms and Cell Cultures (NBIMCC, Bulgaria). The strain E. coli 8785 was cultured in Luria-Bertani broth (LB, HiMedia, Mumbai, India); B. subtilis 3562—in nutrient broth (NB, HiMedia, Mumbai, India); A. oxydans 9333; P. aeruginosa 3700—in meat peptone agar (MPA) medium; and C. albicans 74—in yeast mold (YM) medium. An incubator shaker ES-20/60 (Biosan, Latvia) was used for the cultivation and was set to 30 °C for B. subtilis 3562, A. oxydans 9333, and C. albicans 74; and 37 °C for E. coli 8785 and P. aeruginosa 3700, with a 24 h shaking period at 120 rpm. The microbial cultures were then adjusted to a turbidity of 0.5 McFarland using a Grant-bio DEN-1B densitometer (Grant Instruments, Royston, UK) for further use.
(§2) The disk-diffusion method was used as an additional method, with the aim of determining the percent inhibition of the tested samples against the model strains. Sterile plates with LB/NB/MPA/YM agar medium were inoculated on the surface with 100 μL from each microbial culture and incubated at 30 or 37 °C for 30 min, for the suspension to penetrate the agar. After that, sterile paper discs (HiMedia, Mumbai, India) with a diameter of 6 mm were soaked with 20 µL of the peptide solutions with concentrations of 1.4 mg/mL and 10 mg/mL and placed on the agar surface. Sterile paper discs with 10% EtOH/H2O were used as a negative control, and the corresponding strain antibiotic disks (HiMedia, Mumbai, India)—as a positive control. The incubation of the plate was performed at 30/37 °C for 24 h. The antimicrobial activity was analyzed by measuring the diameter of the inhibition zones in mm. The experiments were conducted in triplicates, and the average values for the percent of inhibition as a correlation between the inhibition zone of the peptides over the inhibition zone of the antibiotic multiplied by 100 were calculated.

[2] = tested on: Bacillus subtilis NBIMCC 3562; type: cell-based; conditions: for Inhibition effect, B. subtilis 3562: zone of peptide over zone of antibiotic x 100; for Inhibition zone, B. subtilis 3562: 20 µL per disc, 24 h
Protocol: as §1, §2

[3] = tested on: Candida albicans NBIMCC 74; type: cell-based; conditions: 20 µL per disc, 24 h
Protocol: as §1, §2

[4] = tested on: Escherichia coli NBIMCC 8785; type: cell-based; conditions: 20 µL per disc, 24 h
Protocol: as §1, §2

[5] = tested on: Pseudomonas aeruginosa NBIMCC 3700; type: cell-based; conditions: for Inhibition effect, P. aeruginosa 3700: zone of peptide over zone of antibiotic x 100; for Inhibition zone, P. aeruginosa 3700: 20 µL per disc, 24 h
Protocol: as §1, §2

[6] = tested on: Candida albicans NBIMCC 74; type: cell-based; conditions: broth dilution, 0 to 320 µg/mL, 24 h; NI = no inhibition monitored

SMILES	IC50 (MCF-12F cells) [µM]	Inhibition effect, A. oxydans 9333 ([1]; 1.4 mg/mL) [%]	Inhibition effect, A. oxydans 9333 ([1]; 10 mg/mL) [%]	Inhibition zone, A. oxydans 9333 ([1]; peptide 1.4 mg/mL) [mm]	Inhibition zone, A. oxydans 9333 ([1]; peptide 10 mg/mL) [mm]	Inhibition effect, B. subtilis 3562 ([2]; 1.4 mg/mL) [%]	Inhibition effect, B. subtilis 3562 ([2]; 10 mg/mL) [%]	Inhibition zone, B. subtilis 3562 ([2]; peptide 1.4 mg/mL) [mm]	Inhibition zone, B. subtilis 3562 ([2]; peptide 10 mg/mL) [mm]	Inhibition zone, C. albicans 74 ([3]; peptide 1.4 mg/mL) [mm]	Inhibition zone, C. albicans 74 ([3]; peptide 10 mg/mL) [mm]	Inhibition zone, E. coli 8785 ([4]; peptide 1.4 mg/mL) [mm]	Inhibition zone, E. coli 8785 ([4]; peptide 10 mg/mL) [mm]	Inhibition effect, P. aeruginosa 3700 ([5]; 1.4 mg/mL) [%]	Inhibition effect, P. aeruginosa 3700 ([5]; 10 mg/mL) [%]	Inhibition zone, P. aeruginosa 3700 ([5]; peptide 1.4 mg/mL) [mm]	Inhibition zone, P. aeruginosa 3700 ([5]; peptide 10 mg/mL) [mm]	MIC, C. albicans 74 [6] [µg/mL]
CC[C@H](C)[C@H](NC(=O)CNC(=O)[C@H](CO)NC(=O)[C@H](CC(C)C)NC(=O)[C@@H](NC(=O)[C@H](CCN)NC(=O)CNC(=O)[C@@H](NC(=O)[C@H](CC(C)C)NC(=O)[C@@H]1CCCN1C(=O)[C@H](CC(C)C)NC(=O)[C@@H](N)Cc1ccccc1)[C@@H](C)CC)C(C)C)C(=O)N[C@@H](CC(C)C)C(N)=O [DTDab, FLPLIG-Dab-VLSGIL-NH2] (H-FLPLIG[Dab]VLSGIL-NH2; N-terminus assumed)	280 ± 13.6	43.2	76.3	8.2 ± 0.3	14.5 ± 0.5	0.0	45.2	0.0	11.3 ± 0.6	0.0	0.0	0.0	0.0	48.1	89.4	7.7 ± 0.6	14.3 ± 0.6	
CC[C@H](C)[C@H](NC(=O)CNC(=O)[C@H](CO)NC(=O)[C@H](CC(C)C)NC(=O)[C@@H](NC(=O)[C@H](CCCCN)NC(=O)CNC(=O)[C@@H](NC(=O)[C@H](CC(C)C)NC(=O)[C@@H]1CCCN1C(=O)[C@H](CC(C)C)NC(=O)[C@@H](N)Cc1ccccc1)[C@@H](C)CC)C(C)C)C(=O)N[C@@H](CC(C)C)C(N)=O [DTF, FLPLIG-K-VLSGIL-NH2, reference compound] (H-FLPLIGKVLSGIL-NH2)	100 ± 3.3	33.5	57.5	6.7 ± 0.3	11.5 ± 0.5	34.0	50.8	8.5 ± 0.5	12.7 ± 0.6	0.0	0.0	0.0	0.0	43.8	64.4	7.0 ± 0.5	10.3 ± 0.8	320 (≈ 234 µM)
